Reference: ChEMBL document CHEMBL1201862, “PubChem BioAssay data set” (2004)
Activity calls are given as the source filed them.

Experiments:
Escherichia coli [1] = test: microbe, parasite or virus in culture
Cysteine protease ATG4B = molecular target: T1, Cysteine protease ATG4B (Homo sapiens, UniProt Q9Y4P1); type: functional;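 note: Fluorescence-based dose-response confirmation assay measuring inhibition of ATG4B activity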
T1 sequence (Q9Y4P1 whole entry): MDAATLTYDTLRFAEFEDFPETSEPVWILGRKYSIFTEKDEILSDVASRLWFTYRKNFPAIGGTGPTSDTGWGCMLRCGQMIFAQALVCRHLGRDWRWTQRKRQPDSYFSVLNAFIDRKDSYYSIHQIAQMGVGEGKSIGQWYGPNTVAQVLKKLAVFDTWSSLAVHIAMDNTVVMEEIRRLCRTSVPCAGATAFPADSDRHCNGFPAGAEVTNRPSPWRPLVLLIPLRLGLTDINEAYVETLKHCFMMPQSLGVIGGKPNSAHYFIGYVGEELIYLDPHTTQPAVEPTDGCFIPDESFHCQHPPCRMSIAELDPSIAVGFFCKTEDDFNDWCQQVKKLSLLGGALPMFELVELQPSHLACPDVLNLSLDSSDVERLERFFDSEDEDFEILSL

Phospholipase A2 = Phospholipase A2 (Homo sapiens, UniProt P04054); type: functional;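 note: confirmatory dose-response counterscreen on phospholipase A2, testing hits that came from an ultra-high-throughput screen for ATG4B inhibitors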
Escherichia coli [2] = test: microbe, parasite or virus in culture; remark: listed apart in the source
Protein Tat = molecular target: T2, Protein Tat (Human immunodeficiency virus type 1 group M subtype B (isolate HXB2)(HIV-1), UniProt P04608); type: functional;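 note: tat binding to TAR RNA read out by fluorescence polarization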
T2 sequence (P04608 whole entry): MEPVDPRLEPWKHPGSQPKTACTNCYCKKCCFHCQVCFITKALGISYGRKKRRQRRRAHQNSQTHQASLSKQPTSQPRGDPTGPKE

[3] = molecular target: Peroxisome proliferator-activated receptor gamma/Nuclear receptor coactivator 3 (Homo sapiens, UniProt P37231); test: TR-FRET dose response biochemical High Throughput Screening assay for agonists of the steroid receptor coactivator 3 (SRC-3) recruitment by the peroxisome proliferator-activated receptor gamma (PPAR gamma): non-selective agonists. [Related pubchem assays: 1301 (Confirmation screen.), 1048 (Primary screen.)]; type: functional
[4] = molecular target: Peroxisome proliferator-activated receptor gamma/Nuclear receptor coactivator 2 (Homo sapiens, UniProt P37231); test: (§1) TR-FRET dose response biochemical High Throughput Screening assay for agonists of the steroid receptor coactivator 2 (SRC-2) recruitment by the peroxisome proliferator-activated receptor gamma (PPAR gamma): non-selective agonists. [Related pubchem assays: 1297, 1032 ]; type: functional
Cytochrome P450 2D6 = Cytochrome P450 2D6 (Homo sapiens, UniProt P10635);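 note: CYP2D6 member of a cytochrome P450 panel assay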
[5] = molecular target: Peroxisome proliferator-activated receptor gamma/Nuclear receptor coactivator 1 (Homo sapiens, UniProt P37231); test: as §1, with “1 (SRC-1)” for “2 (SRC-2)”, “assays (depositor defined):AID1300, AID1808, AID504735, AID631]” for “assays: 1297, 1032 ]”; type: protein assay
Cytochrome P450 2C9 = Cytochrome P450 2C9 (Homo sapiens, UniProt P11712)
Cytochrome P450 2C19 = Cytochrome P450 2C19 (Homo sapiens, UniProt P33261); test: Cytochrome panel assay with activity outcomes. Panel member name: p450-cyp2c19 Compounds with AC50 equal or less than 10 uM are considered active; type: functional; settings: read-out: AC50
Streptococcus = test: GAS UMAA2166 growth inhibition – luminescence, BacTiterGlo, counter-screen for streptokinase expression inhibitor project, dose response (AID 1915); type: functional, organism-based;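 note: potency for reduction of bacterial viability or growth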
[6] = molecular target: T3, Serine/threonine-protein phosphatase (Candida dubliniensis (strain CD36 / CBS 7987 / NCPF 3949 / NRRLY-17841) (Yeast), UniProt B9W6M3); test: blockers of CaCl2-induced CDRE-lacZ signaling – S. cerevisiae, luminescence, secondary, dose response (AID 2388); type: functional, cell-based;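 note: yeast reporter cells carrying a calcineurin-responsive lacZ construct stimulated with calcium chloride; luminescent beta-galactosidase reporter signal in whole cells rather than isolated phosphatase activity; potency for inhibition where a drop in reporter signal means calcineurin blockade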
T3 sequence (B9W6M3 whole entry): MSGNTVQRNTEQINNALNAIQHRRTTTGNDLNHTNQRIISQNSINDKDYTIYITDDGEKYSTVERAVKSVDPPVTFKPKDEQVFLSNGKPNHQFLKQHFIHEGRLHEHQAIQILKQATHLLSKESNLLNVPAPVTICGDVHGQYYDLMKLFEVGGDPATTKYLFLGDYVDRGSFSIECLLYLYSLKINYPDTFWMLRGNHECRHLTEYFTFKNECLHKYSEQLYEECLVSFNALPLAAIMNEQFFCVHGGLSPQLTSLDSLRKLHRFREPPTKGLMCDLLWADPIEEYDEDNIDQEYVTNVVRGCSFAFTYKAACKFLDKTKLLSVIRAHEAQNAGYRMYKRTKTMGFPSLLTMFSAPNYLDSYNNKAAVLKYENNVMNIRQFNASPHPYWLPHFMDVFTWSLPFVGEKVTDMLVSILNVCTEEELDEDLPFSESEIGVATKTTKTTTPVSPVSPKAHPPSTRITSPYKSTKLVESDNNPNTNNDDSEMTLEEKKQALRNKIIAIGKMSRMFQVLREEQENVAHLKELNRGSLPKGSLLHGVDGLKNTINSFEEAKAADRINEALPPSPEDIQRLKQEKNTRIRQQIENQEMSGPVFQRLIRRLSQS

[7] = NIH-3T3 fibroblast cytotoxicity, dose response, cytotoxicity control, cell-based, fluorescence, Alamar Blue, secondary assay (AID 2327); type: functional;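 note: NIH-3T3 mouse fibroblasts cultured with fluconazole at 8 µg/mL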
[8] = molecular target: Heat shock protein HSP 90-alpha (Homo sapiens, UniProt P07900); type: functional, organism-based
[9] = molecular target: ATP-dependent molecular chaperone HSP82 (Candida albicans (strain WO-1) (Yeast), UniProt C4YTQ8); test: steroid-induced GRE reporter decrease in yeast – S. cerevisiae, luminescence, Hsp90 inhibitor project, dose response (AID 2400); type: functional, cell-based;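 note: beta-galactosidase luminescence from glucocorticoid response element reporter as proxy for Hsp90 function; inhibitor potency where signal loss means Hsp90 inhibition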
[10] = tested on: Streptococcus sp. 'group A'; test: Streptococcus pyogenes SK(-)GAS viability under kanamycin – luminescence, BacTiterGlo, confirmation, counter-screen for streptokinase expression inhibitor project, dose response (AID 1900); type: functional, organism-based
[11] = fluconazole-exposed Candida albicans growth modulators – fluorescence, retest, confirmation (AID 2467); type: functional, cell-based
[12] = molecular target: DNA dC->dU-editing enzyme APOBEC-3A (Homo sapiens, UniProt P31941); test: Dose Response confirmation of small molecule APOBEC3A DNA Deaminase Inhibitors via a fluorescence-based single-stranded DNA deaminase assay. [Related pubchem assays (depositor defined):AID493011, AID493024]; type: functional
[13] = molecular target: T4, Carboxy-terminal domain RNA polymerase II polypeptide A small phosphatase 1 (Homo sapiens, UniProt Q9GZU7); test: CTDSP1 inhibitors, concentration-response, biochemical, absorbance readout, ultra-high-throughput screen actives (AID 540297); type: functional
T4 sequence (Q9GZU7 whole entry): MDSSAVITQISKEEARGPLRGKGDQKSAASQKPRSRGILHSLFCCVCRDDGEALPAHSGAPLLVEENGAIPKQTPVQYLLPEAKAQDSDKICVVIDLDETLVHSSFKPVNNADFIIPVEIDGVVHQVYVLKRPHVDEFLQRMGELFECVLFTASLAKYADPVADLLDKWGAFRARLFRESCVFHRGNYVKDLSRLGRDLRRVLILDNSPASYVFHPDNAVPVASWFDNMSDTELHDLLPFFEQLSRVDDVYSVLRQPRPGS

INS1 = test: INS-1E survival protection against cytokine death – cell-based, luminescence, retest, dose response (AID 449756); type: functional; settings: Rattus norvegicus;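 note: cell death triggered by IL-1 beta plus TNF-alpha plus IFN-gamma mixture; protective hits raise ATP signal compared with cytokine alone wells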
cells [14] = type: functional, cell-based
[15] = microbe, parasite or virus in culture; type: functional; settings: Mycobacterium tuberculosis
[16] = HEK-293T viability loss after treatment – luminescence, T-cell screen hits, cytotoxicity control for TCR NF-kB inhibitor project, dose response (AID 489026); type: functional, cell-based;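 note: cells exposed to compound about 14 hours before the viability readout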
cells [17] = type: functional, cell-based; remark: listed apart in the source

Chain of ATP-dependent molecular chaperone HSP82 (C4YTQ8 whole entry): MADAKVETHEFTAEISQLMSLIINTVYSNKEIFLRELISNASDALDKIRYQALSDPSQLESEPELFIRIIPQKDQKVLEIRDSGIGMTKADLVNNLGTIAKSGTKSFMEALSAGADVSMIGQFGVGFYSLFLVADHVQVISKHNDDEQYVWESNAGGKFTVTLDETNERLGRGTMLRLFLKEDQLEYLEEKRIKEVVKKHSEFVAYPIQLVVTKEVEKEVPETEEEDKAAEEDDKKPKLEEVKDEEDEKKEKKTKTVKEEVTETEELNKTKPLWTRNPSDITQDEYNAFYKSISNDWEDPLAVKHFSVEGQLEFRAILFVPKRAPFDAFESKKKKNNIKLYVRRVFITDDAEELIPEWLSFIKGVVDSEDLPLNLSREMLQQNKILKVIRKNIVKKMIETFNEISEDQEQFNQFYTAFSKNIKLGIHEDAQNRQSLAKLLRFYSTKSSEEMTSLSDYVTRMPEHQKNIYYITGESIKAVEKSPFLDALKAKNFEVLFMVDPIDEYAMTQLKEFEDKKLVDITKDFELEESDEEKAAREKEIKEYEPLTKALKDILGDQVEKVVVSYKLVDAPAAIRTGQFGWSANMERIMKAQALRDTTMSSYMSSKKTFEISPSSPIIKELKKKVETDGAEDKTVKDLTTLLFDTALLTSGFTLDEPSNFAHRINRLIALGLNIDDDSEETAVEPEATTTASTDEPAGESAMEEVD
Chain of Peroxisome proliferator-activated receptor gamma/Nuclear receptor coactivator 1 (P37231 whole entry): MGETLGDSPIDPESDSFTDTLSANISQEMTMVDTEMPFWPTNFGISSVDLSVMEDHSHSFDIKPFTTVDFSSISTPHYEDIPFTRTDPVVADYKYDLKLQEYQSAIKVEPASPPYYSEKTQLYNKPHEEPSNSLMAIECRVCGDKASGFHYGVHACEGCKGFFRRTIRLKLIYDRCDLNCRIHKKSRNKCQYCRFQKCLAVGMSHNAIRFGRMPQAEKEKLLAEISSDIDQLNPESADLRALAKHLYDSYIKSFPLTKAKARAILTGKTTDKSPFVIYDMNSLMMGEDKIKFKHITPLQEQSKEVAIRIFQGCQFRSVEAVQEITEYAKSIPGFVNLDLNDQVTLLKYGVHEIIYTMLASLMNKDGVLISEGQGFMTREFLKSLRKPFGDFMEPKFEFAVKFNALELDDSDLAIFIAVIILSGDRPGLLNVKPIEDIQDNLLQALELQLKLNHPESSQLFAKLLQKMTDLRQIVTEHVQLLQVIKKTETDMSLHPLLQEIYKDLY
Chain of Peroxisome proliferator-activated receptor gamma/Nuclear receptor coactivator 1 (Q15788 whole entry, further chain): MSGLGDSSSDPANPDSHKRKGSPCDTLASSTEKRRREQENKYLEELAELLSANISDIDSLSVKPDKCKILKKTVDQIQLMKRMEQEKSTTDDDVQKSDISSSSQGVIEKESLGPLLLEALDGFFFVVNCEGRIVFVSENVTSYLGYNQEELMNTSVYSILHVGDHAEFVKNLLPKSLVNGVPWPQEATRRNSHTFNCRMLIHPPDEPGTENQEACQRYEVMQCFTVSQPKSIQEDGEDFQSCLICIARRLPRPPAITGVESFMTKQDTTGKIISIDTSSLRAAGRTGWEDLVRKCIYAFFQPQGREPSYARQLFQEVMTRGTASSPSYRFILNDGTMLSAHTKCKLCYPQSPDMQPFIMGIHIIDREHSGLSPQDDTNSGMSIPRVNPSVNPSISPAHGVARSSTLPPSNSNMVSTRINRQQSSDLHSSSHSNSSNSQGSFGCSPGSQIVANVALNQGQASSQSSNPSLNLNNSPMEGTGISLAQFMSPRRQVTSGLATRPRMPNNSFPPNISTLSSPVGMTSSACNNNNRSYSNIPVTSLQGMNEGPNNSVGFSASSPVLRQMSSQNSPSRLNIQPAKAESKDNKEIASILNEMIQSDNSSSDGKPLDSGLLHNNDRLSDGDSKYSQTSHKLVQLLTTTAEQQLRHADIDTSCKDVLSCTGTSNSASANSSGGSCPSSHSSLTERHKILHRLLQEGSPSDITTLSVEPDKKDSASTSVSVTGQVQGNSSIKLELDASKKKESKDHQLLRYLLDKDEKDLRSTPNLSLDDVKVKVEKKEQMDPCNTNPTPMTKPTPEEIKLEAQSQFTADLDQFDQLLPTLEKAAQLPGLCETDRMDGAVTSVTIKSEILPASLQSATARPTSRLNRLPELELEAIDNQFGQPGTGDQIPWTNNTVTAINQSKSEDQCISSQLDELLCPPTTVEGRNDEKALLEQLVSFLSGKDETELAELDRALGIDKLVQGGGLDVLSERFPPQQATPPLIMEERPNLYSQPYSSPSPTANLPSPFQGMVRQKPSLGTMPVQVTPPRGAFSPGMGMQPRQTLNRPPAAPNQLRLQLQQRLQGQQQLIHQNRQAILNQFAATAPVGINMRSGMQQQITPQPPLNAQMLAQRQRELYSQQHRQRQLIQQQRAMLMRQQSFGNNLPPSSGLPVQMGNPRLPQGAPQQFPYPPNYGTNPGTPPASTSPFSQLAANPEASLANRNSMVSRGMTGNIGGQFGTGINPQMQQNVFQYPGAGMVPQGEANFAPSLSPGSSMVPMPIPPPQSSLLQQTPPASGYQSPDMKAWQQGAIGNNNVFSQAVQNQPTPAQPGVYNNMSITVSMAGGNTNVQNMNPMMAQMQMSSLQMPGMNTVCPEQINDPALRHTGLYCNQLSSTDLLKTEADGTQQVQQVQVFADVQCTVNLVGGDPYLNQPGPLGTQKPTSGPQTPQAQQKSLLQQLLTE
Chain of Peroxisome proliferator-activated receptor gamma/Nuclear receptor coactivator 2 (P37231 whole entry): as the sequence (P37231 whole entry) above
Chain of Peroxisome proliferator-activated receptor gamma/Nuclear receptor coactivator 2 (Q15596 whole entry, further chain): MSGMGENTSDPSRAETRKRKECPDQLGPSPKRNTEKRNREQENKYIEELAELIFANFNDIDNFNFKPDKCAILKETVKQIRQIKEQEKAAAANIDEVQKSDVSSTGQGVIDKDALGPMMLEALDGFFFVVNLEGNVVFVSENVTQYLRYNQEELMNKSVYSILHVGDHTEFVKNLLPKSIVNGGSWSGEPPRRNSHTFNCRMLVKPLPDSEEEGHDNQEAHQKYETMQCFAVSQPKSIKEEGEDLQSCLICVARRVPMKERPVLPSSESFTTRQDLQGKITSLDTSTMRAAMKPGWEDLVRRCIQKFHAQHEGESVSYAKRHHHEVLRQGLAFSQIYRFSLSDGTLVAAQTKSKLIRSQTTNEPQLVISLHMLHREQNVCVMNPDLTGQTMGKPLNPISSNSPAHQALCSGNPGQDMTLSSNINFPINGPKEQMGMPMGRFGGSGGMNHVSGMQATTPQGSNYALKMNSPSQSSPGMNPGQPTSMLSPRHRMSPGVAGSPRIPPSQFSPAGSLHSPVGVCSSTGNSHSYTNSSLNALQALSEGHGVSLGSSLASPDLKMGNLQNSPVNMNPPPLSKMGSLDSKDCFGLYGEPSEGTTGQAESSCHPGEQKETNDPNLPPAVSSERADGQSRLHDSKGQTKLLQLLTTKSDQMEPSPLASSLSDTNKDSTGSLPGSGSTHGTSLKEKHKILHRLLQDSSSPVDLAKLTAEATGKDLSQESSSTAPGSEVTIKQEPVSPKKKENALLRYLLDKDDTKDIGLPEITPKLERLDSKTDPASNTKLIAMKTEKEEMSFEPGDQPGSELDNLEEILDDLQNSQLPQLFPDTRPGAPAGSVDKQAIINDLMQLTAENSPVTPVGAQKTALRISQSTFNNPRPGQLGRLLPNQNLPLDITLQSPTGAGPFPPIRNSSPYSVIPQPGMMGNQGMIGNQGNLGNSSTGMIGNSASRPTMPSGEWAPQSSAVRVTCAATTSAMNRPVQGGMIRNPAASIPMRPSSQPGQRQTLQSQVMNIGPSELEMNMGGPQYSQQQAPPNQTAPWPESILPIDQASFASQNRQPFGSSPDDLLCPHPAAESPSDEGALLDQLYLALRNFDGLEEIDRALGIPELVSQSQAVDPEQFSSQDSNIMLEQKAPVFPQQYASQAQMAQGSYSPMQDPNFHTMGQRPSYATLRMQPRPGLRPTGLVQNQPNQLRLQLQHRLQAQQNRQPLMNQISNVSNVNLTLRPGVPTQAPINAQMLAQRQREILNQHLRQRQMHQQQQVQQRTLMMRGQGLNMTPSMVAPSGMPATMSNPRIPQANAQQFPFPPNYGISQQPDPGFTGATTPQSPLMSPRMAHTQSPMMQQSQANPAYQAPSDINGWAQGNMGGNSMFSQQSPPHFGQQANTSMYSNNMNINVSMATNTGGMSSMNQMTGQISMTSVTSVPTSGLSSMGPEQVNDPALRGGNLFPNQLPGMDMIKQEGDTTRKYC
Chain of DNA dC->dU-editing enzyme APOBEC-3A (P31941 whole entry, the tested form may be a part): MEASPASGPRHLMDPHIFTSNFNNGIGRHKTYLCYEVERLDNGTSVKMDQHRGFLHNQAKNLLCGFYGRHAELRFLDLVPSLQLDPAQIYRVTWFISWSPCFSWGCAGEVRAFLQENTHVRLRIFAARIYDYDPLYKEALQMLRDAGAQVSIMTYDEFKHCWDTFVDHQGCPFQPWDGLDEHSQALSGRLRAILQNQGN
Chain of Phospholipase A2 (P04054 whole entry): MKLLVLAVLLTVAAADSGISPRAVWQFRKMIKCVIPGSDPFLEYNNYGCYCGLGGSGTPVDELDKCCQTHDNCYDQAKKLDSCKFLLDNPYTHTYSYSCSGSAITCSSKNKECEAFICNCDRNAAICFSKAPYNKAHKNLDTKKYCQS

Question: Which AC50 (Escherichia coli [1]) does the source give for `O=C(CCSc1ccccc1)NCC1CCCO1` (configuration not stated) here?
Answer: 30.4 µM (active)

Question: With `CN(C)[C@@H]1C(O)=C(C(N)=O)C(=O)[C@@]2(O)C(O)=C3C(=O)c4c(O)ccc(Cl)c4[C@@](C)(O)C3C[C@@H]12` (some centres not stated) as the compound, how does the IC50 (Cysteine protease ATG4B) read?
Answer: 6.14 µM (active)

Question: And the IC50 (Phospholipase A2)?
Answer: 5.75 µM (active)

Question: What about the AC50 (Escherichia coli [2]) of the same compound?
Answer: 1.2 µM (active)

Question: And the AC50 (Escherichia coli [1])?
Answer: 47 µM (active)

Question: And the IC50 (Protein Tat)?
Answer: > 100 µM (active)

Question: What does the source list for `CCn1c(=O)cc(SCC(=O)Nc2cc(OC)c(OC)c(OC)c2)c2ccccc21`?
Answer: EC50 [3]: > 79.4 µM (not active); EC50 [4]: 76.2 µM (not active); AC50 (Cytochrome P450 2D6): inconclusive; EC50 [5]: > 79.4 µM (inactive); AC50 (Cytochrome P450 2C9): inconclusive; AC50 (Cytochrome P450 2C19): 0.355 µM (inconclusive)

Question: What does the source list for `Oc1c(C(c2ccc(Cl)cc2)N2CCCC2)cc(Cl)c2cccnc12` (configuration not stated)?
Answer: EC50 (Streptococcus): 1.41 µM (active); EC50 [6]: > 180 µM (inactive); EC50 [7]: 15 µM (active); AC50 [8]: 2.02 µM (active); EC50 [9]: 22.5 µM (active); EC50 [10]: 1.34 µM (active); EC50 [11]: 0.135 µM (active)

Question: Which IC50 [12] does the source give for `CC(C)[N+]12CCC(CC1)C(C(O)(c1ccccc1)c1ccccc1)C2` (configuration not stated) here?
Answer: 2.71 µM (active)

Question: What about the IC50 [13] of the same compound?
Answer: 8.96 µM (active)

Question: With `CN(CC(=O)NCc1cccnc1)S(=O)(=O)c1ccccc1` as the compound, how does the AC50 (Escherichia coli [2]) read?
Answer: 54.1 µM (active)

Question: For `COc1cccc(/C=N/Nc2ncnc3scc(-c4ccccc4)c23)c1O`, which AC50 (INS1) is on record?
Answer: 0.432 µM (active)

Question: And the EC50 (cells [14])?
Answer: > 350 µM (not active)

Question: What about the CC50 [15] of the same compound?
Answer: 1.31 µM (active)

Question: What about the EC50 [6] of the same compound?
Answer: > 180 µM (inactive)

Question: What about the IC50 [16] of the same compound?
Answer: 62.5 µM (inactive)

Question: What about the EC50 [7] of the same compound?
Answer: > 150 µM (inactive)

Question: And the AC50 [8]?
Answer: 24.5 µM (active)

Question: What about the EC50 [9] of the same compound?
Answer: 17.7 µM (active)

Question: And the EC50 (cells [17])?
Answer: 2.21 µM (active)

Question: What about the EC50 [11] of the same compound?
Answer: 0.753 µM (active)
